Results: patent publication US20240102991A1, “Synthetic Fluorescent Protein Biosensors and Use Thereof in Drug Screening Methods” (The Regents of the University of Colorado, a body corporate, priority 2017, published 2024)

Tested on: biosensor expressing cells (HEK293T)
Type: cell-based, human

Substance: Cholera Toxin
- biosensors that respond in some way to the single drug treatment: > 80%
